According to US4740517A, “Antidiabetic spiro-3-heteroazolidines” (Sanwa Kagaku Kenyusho Co., Ltd., priority 1985, dated 1988):

How the values were obtained:
aldose reductase enzyme = molecular target: T1, aldose reductase enzyme (Rattus norvegicus, UniProt P07943); test: inhibition of aldose reductase enzyme activity using water-soluble extracts of rat lenses (Kador and Sharpless procedure); format: biochemical; conditions: for inhibition at 10 µM: 10^-5 M; for inhibition at 1 µM: 10^-6 M; for inhibition at 0.1 µM: 10^-7 M; for IC50: read-out: IC50 (concentration of inhibitor which gives 50% inhibition)
T1 construct: Using water-soluble extracts of rat lenses; from tissue; host or cells: rat lens, water-soluble extract
Procedure: Using water-soluble extracts of rat lenses, the inhibitions of these compounds were determined.

[1] = test system: polyol increase in sciatic nerve of galactosemic rats; test: reduction or inhibition of polyol (galactitol) increase in sciatic nerve of galactosemic rats; format: in vivo, rat; conditions: for Percent Inhibition (%) as compared to galactitol increase of the control animals: rats, 30% galactose diet, oral 10 mg/kg once a day for 8 days, sciatic nerve removed on 9th day
Procedure: Some spiro-3-heteroazolidine compounds according to the invention were tested to evaluate their ability on reduction or inhibition of polyol increase in sciatic nerve of galactosemic rats. To the rats, 30% galactose diet was fed and said compounds were orally administered at a dose of 10 mg/kg once a day for a period of 8 days. Control animals were received the galactose diet and were administered no such compound. One day after final administration (on 9th day from the first administration), sciatic nerves were removed for galactitol determination.

[2] = read-out: Percent Inhibition (%) of aldose reductase enzyme activity

Row | SMILES | inhibition at 10 µM (aldose reductase enzyme; [2]) [%] | inhibition at 1 µM (aldose reductase enzyme; [2]) [%] | inhibition at 0.1 µM (aldose reductase enzyme; [2]) [%] | IC50 (aldose reductase enzyme) [nM] | Percent Inhibition (%) as compared to galactitol increase of the control animals [1] [%] | inhibition of polyol accumulation in sciatic nerve (in words) [1] | ability to reduce or inhibit polyol increase in sciatic nerve of galactosemic rats, potency of diastereoisomers ([1]; major versus minor diastereoisomer of Example 1) | inhibition at 0.01 µM (aldose reductase enzyme; 10^-8 M, read-out: Percent Inhibition (%) of aldose reductase enzyme activity) [%]
1 | NC(=O)C1CC2(NC(=O)NC2=O)c2cc(F)ccc2O1 (stereo not drawn) [Example 2, 6-Fluoro-2,3-dihydro-2',5'-dioxo-spiro[4H-1-benzopyran-4,4'-imidazolidine]-2-carboxamide] | 93 | 85 | 15 | 400 | 85 | excellent |  | 
2 | O=C1NC(=O)C2(CC(CO)Oc3ccc(F)cc32)N1 (stereo not drawn) [Example 12, 6-Fluoro-2,3-dihydro-2-hydroxymethyl-spiro[4H-1-benzopyran-4,4'-imidazolidine]-2',5'-dione] | 85 | 28 | 13 | 4000 | 40 |  |  | 
3 | CN(C)C(=O)C1CC2(NC(=O)NC2=O)c2cc(F)ccc2O1 (stereo not drawn) [Example 5, 6-Fluoro-2,3-dihydro-N,N-dimethyl-2',5'-dioxo-spiro[4H-1-benzopyran-4,4'-imidazolidine]-2-carboxamide] | 61 | 29 | 10 | 5000 | 70 | excellent |  | 
4 | O=C1NC(=O)C2(CC(C(=O)O)Oc3ccc(F)cc32)N1 (stereo not drawn) [Example 1, 6-Fluoro-2,3-dihydro-2',5'-dioxo-spiro[4H-1-benzopyran-4,4'-imidazolidine]-2-carboxylic acid] | 77 | 47 | 9 | 6000 | 36 |  | greater than that of the minor diastereoisomer | 
5 | O=C1NC(=O)C2(CC(CCl)Oc3ccc(F)cc32)N1 (stereo not drawn) [Example 13, 2-Chloromethyl-6-fluoro-2,3-dihydro-spiro[4H-1-benzopyran-4,4'-imidazolidine]-2',5'-dione] | 90 | 51 | 3 | 1000 | 88 |  |  | 
6 | COc1ccc(NC(=O)C2CC3(NC(=O)NC3=O)c3cc(F)ccc3O2)cc1 (stereo not drawn) [Example 8, 6-Fluoro-2,3-dihydro-N-(4-methoxyphenyl)-2',5'-dioxo-spiro[4H-1-benzopyran-4,4'-imidazolidine]-2-carboxamide] | 81 | 81 | 65 | 70 | 26 |  |  | 14
7 | CNC(=O)C1CC2(NC(=O)NC2=O)c2cc(F)ccc2O1 (stereo not drawn) [Example 3, 6-Fluoro-2,3-dihydro-N-methyl-2',5'-dioxo-spiro[4H-1-benzopyran-4,4'-imidazolidine]-2-carboxamide] | 71 | 78 | 26 | 500 | 31 |  |  | 
